# Laboratory results as given in US9309242B2, “Substituted pyrido[2,3-b]pyrazines as FGFR kinase inhibitors” (priority 2011, dated 2016).
# How the values were obtained:
# [1] = system: Ba/F3-KDR-transfected cells; assay: Ba/F3-KDR (plus IL3) cellular proliferation assay, counterscreen with 10 ng/ml murine IL3; assay type: cell-based; conditions: plus IL3 (10 ng/ml murine IL3, counterscreen); read-out: BAF3-KDR (PLUS IL3) pIC50 (converted)
# How it was run: (§1)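 Ba/F3-KDR-transfected cells, 20000 per well in phenol red free RPMI-1640 with 10% FBS, exposed to compound 24 hours at 37° C, 5% CO2; Alamar Blue then added for 4 hours and fluorescence read (ex. 540 nm, em. 590 nm). Plus-IL3 counterscreen run identically with 10 ng/ml murine IL3.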
# [2] = biological target: T1, Ba/F3-KDR-transfected cells (Homo sapiens, UniProt P35968); assay: Ba/F3-KDR (minus IL3) cellular proliferation assay, Alamar Blue; assay type: cell-based
# T1 construct: BAF3-KDR (MIN IL3) pIC50; other: minus IL3
# How it was run: as §1
# T1 sequence (P35968 whole entry, change not shown): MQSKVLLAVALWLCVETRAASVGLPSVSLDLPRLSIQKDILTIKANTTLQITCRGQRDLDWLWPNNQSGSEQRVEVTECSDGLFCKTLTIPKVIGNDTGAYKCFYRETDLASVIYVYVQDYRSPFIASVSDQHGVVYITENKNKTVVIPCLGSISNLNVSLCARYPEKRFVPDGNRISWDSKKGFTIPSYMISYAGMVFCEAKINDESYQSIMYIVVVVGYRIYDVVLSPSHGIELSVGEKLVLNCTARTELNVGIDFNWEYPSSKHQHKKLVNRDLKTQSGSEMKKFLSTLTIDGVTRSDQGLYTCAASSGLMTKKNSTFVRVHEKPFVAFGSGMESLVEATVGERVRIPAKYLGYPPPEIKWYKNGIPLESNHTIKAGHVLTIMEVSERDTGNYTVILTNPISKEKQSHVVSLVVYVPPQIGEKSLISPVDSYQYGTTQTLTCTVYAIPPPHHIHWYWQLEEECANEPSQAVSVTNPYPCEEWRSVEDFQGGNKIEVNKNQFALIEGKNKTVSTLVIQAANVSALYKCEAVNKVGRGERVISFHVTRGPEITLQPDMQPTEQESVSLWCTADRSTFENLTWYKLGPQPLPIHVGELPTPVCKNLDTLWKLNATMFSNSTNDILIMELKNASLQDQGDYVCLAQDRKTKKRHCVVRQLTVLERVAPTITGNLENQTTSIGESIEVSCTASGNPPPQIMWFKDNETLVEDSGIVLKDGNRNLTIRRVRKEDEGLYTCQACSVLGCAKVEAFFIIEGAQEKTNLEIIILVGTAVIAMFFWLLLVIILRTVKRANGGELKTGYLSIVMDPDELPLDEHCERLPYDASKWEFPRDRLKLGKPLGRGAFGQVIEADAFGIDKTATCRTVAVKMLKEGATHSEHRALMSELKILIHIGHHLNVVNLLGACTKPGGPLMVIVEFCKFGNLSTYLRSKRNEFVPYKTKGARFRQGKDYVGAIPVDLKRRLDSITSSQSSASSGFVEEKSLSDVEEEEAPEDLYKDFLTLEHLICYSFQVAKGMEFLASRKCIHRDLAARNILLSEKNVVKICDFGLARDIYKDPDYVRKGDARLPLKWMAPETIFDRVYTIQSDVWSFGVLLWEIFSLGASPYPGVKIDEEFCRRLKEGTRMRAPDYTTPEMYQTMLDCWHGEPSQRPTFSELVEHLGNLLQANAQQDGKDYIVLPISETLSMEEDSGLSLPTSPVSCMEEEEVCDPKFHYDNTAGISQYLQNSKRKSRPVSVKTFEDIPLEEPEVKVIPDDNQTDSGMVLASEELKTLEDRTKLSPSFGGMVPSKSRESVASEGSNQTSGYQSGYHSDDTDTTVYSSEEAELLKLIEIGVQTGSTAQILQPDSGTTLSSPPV
SMILES,melting point [°C],IC50 [1] [µM],BAF3-KDR (MIN IL3) pIC50 [2]
"COCC(O)Cn1/c(=N/c2cc(OC)cc(OC)c2F)ccc2ncc(-c3cnn(C)c3)nc21 (single isomer, unassigned) [Compound 60]",114,> 10,6.58
"COc1cc(OC)c(F)c(N(CC(O)COC(C)C)c2ccc3ncc(-c4cnn(CC(O)COC(C)C)c4)nc3n2)c1 (single isomer, unassigned) [Compound 252]",60,> 10,5.67
"COc1cc(OC)c(F)c(N(C)c2ccc3ncc(-c4cnn(C)c4)nc3n2)c1F (single isomer, unassigned) [Compound 254]",210,> 10,5.98
"COc1cc(OC)c(F)c(/N=c2\ccc3ncc(-c4cnn(C)c4)nc3n2C)c1F (single isomer, unassigned) [Compound 255]",199,> 10,6.22
"COc1cc(OC)c(F)c(/N=c2\ccc3ncc(-c4cnn(C)c4)nc3n2CC2CC2)c1F (single isomer, unassigned) [Compound 267]",195,> 10,6.37
"COc1cc(OC)c(F)c(N(CC2CC2)c2ccc3ncc(-c4cnn(C)c4)nc3n2)c1F (single isomer, unassigned) [Compound 268]",–,> 10,5.55
COc1cc(OC)c(F)c(N(CC(O)c2cnn(C)c2)c2ccc3ncc(-c4cnn(C)c4)nc3n2)c1 (stereo not shown) [Compound 244],–,> 10,5.03
COc1cc(OC)c(F)c(N(CC(C)(C)O)c2ccc3ncc(-c4cnn(C)c4)nc3n2)c1 [Compound 245],–,> 10,5.33
COc1cc(/N=c2\ccc3ncc(-c4cnn(C)c4)nc3n2CC(C)(C)O)c(F)c(OC)c1 [Compound 246],–,> 10,5.83
COc1cc(/N=c2\ccc3ncc(-c4cnn(C)c4)nc3n2CC2CCC(=O)N2CCO)c(F)c(OC)c1 (stereo not shown) [Compound 247],–,> 10,5.63
COc1cc(OC)c(F)c(N(CC(=O)NC(C)C)c2ccc3ncc(-c4cnn(C)c4)nc3n2)c1 [Compound 249],–,> 10,5.09
COc1cc(OC)cc(N(CC(O)COC(C)C)c2ccc3ncc(-c4cnn(CC(O)COC(C)C)c4)nc3n2)c1 (stereo not shown) [Compound 250],–,> 10,5.16
COc1cc(OC)cc(N(Cc2c[nH]nn2)c2ccc3ncc(-c4cnn(C)c4)nc3n2)c1 [Compound 251],–,> 10,5.53
COc1cc(OC)c(F)c(N(Cc2ncc[nH]2)c2ccc3ncc(-c4cnn(C5COC5)c4)nc3n2)c1 [Compound 253],–,> 10,6.32
CCn1/c(=N/c2c(F)c(OC)cc(OC)c2F)ccc2ncc(-c3cnn(C)c3)nc21 [Compound 257],–,> 10,6.80
COc1cc(OC)c(F)c(N(Cc2c[nH]nn2)c2ccc3ncc(-c4cnn(C)c4)nc3n2)c1 [Compound 258],–,> 10,6.02
COc1cc(OC)c(F)c(N(Cc2ncc[nH]2)c2ccc3ncc(N4C[C@@H](C)N[C@@H](C)C4)nc3n2)c1 [Compound 259],–,> 10,5.13
CNC(=O)c1cc(F)cc(N(Cc2ncc[nH]2)c2ccc3ncc(-c4cnn(C)c4)nc3n2)c1 [Compound 261],180,> 10,6.01
COc1cc(OC)c(F)c(N(CC(=O)N2CCNCC2)c2ccc3ncc(-c4cnn(C)c4)nc3n2)c1 [Compound 262],–,> 10,5.06
COc1cc(OC)c(F)c(N(Cc2ncc[nH]2)c2ccc3ncc(-c4cnn(CCS(C)(=O)=O)c4)nc3n2)c1 [Compound 264],–,> 10,5.58
COc1cc(OC)c(F)c(N(CCS(C)(=O)=O)c2ccc3ncc(-c4cnn(CCS(C)(=O)=O)c4)nc3n2)c1 [Compound 266],180,> 10,<5

SMILES,melting point [°C],IC50 [1] [µM],BAF3-KDR (MIN IL3) pIC50 [2]
COc1cc(OC)c(F)c(N(CC2CC(O)C(=O)N2)c2ccc3ncc(-c4cnn(C)c4)nc3n2)c1 (stereo not shown) [Compound 269],–,> 10,5.12
COc1cc(/N=c2\ccc3ncc(-c4cnn(C)c4)nc3n2CC2CC(O)C(=O)N2)c(F)c(OC)c1 (stereo not shown) [Compound 270],–,> 10,5.56
COc1cc(OC)cc(N(CC2CC(O)C(=O)N2)c2ccc3ncc(-c4cnn(C)c4)nc3n2)c1 (stereo not shown) [Compound 271],–,> 10,<5
COc1cc(/N=c2\ccc3ncc(-c4cnn(C)c4)nc3n2CC2CC(O)C(=O)N2)cc(OC)c1 (stereo not shown) [Compound 272],–,> 10,5.68
COc1cc(OC)c(C)c(N(Cc2ncc[nH]2)c2ccc3ncc(-c4cnn(C)c4)nc3n2)c1 [Compound 273],–,> 10,6.44
COc1cc(OC)cc(N(CCS(C)(=O)=O)c2ccc3ncc(-c4cnn(CCS(C)(=O)=O)c4)nc3n2)c1 [Compound 275],172,> 10,<5
COc1cc(OC)cc(N(CC(C)(C)O)c2ccc3ncc(-c4cnn(C)c4)nc3n2)c1 [Compound 276],–,> 10,5.02
COc1cc(/N=c2\ccc3ncc(-c4cnn(C)c4)nc3n2CC(C)(C)O)cc(OC)c1 [Compound 277],–,> 10,5.49
COc1cc(OC)c(F)c(N(CC(C)(C)O)c2ccc3ncc(-c4cnn(C)c4)nc3n2)c1F [Compound 278],–,> 10,5.92
COc1cc(OC)cc(N(c2ccc3ncc(-c4cnn(C)c4)nc3n2)C(C)c2ncc[nH]2)c1 (stereo not shown) [Compound 280],–,> 10,6.03
COc1cc(OC)cc(N(Cc2nnc(NCCO)o2)c2ccc3ncc(-c4cnn(C)c4)nc3n2)c1 [Compound 282],104,> 10,<5
COc1cc(OC)c(F)c(N(CC2CCC(=O)N2)c2ccc3ncc(-c4cnn(CC(C)(C)O)c4)nc3n2)c1 (stereo not shown) [Compound 285],–,> 10,5.36
COc1cc(/N=c2\ccc3ncc(-c4cnn(CC(C)(C)O)c4)nc3n2CC2CCC(=O)N2)c(F)c(OC)c1 (stereo not shown) [Compound 286],–,> 10,6.23
COc1cc(OC)c(F)c(N(c2ccc3ncc(-c4cnn(C)c4)nc3n2)C(C)c2ncc[nH]2)c1 (stereo not shown) [Compound 287],–,> 10,6.62
CNCCn1ccnc1CN(c1ccc2ncc(-c3cnn(C)c3)nc2n1)c1cc(OC)cc(OC)c1F [Compound 289],92,> 10,5.28
COc1cc(OC)cc(N(CCNC2COC2)c2ccc3ncc(-c4cnn(C)c4)nc3n2)c1 [Compound 290],–,> 10,5.81
COc1cc(OC)c(F)c(N(Cc2ncc[nH]2)c2ccc3ncc(N4CCOCC4)nc3n2)c1 [Compound 291],–,> 10,5.68
COc1cc(OC)cc(N(Cc2ncc[nH]2)c2ccc3ncc(N4CCOCC4)nc3n2)c1 [Compound 293],–,> 10,5.31
COc1cc(OC)c(F)c(N(Cc2ncc[nH]2)c2ccc3ncc(-c4cnn(CCCN)c4)nc3n2)c1 [Compound 295],–,> 10,6.45
COc1cc(OC)c(F)c(N(Cc2noc(C)n2)c2ccc3ncc(-c4cnn(C)c4)nc3n2)c1 [Compound 297],–,> 10,6.08
COc1cc(OC)c(F)c(N(CC2CCC(=O)N2)c2ccc3ncc(-c4cnn(C5CNC5)c4)nc3n2)c1 (stereo not shown) [Compound 299],–,> 10,<5
